Laboratory results as given in patent US8530517B2, “Retinoid derivatives endowed with cytotoxic and/or antiangiogenic properties” (Sigma-Tau Industrie Farmaceutiche Riunite S.p.A., priority 2008, dated 2013).
Structures can show the parent of a compound that is named as a salt. Where two headings read alike, the source gives them in different places.

How the values were obtained:
[1] = system: NCI-H460 non-small cell lung carcinoma cells; test: Cytotoxicity on NCI-H460 tumor cell line (sulphorodamine B test); assay type: cell-based; details: further 48 h in drug-free medium, read-out: NCI-H460 IC50 μM ± SD
Procedure: To evaluate the effect of the compounds on survival cells, the sulphorodamine B test was used. To test the effects of the compounds on cell growth, NCI-H460 non-small cell lung carcinoma cells were used. Tumor cells were grown in RPMI 1640 containing 10% fetal bovine serum (GIBCO).
Tumor cells were seeded in 96-well tissue culture plates at approximately 10% confluence and were allowed to attach and recover for at least 24 h. Varying concentrations of the drugs were then added to each well to calculate their IC50 value (the concentration which inhibits the 50% of cell survival). The plates were incubated at 37° C. for 24 h. At the end of the treatment, the plates were washed by remotion of the surnatant and addition of PBS. Medium culture (200 μL) was added again and the plates were incubated for further 48 h at 37° C. 200 μl PBS and 50 μl of cold 80% TCA were added. The plates were incubated on ice for at least 1 h. TCA was removed, the plates were washed 3 times for immersion in distilled-water and dried on paper and at 40° C. for 5 min. Then 200 μl of 0.4% sulphorodamine B in 1% acetic acid were added. The plates were incubated at room temperature for other 30 min. Sulphorodamine B was removed, the plates were washed for immersion in 1% acetic acid for 3 times, then they were dried on paper and at 40° C. for 5 min. Then 200 μl Tris 10 mM were added, the plates were kept under stirring for 20 min. The survival cell was determined as optical density by a Multiskan spectrofluorimeter at 540 nm. The amount of cells killed was calculated as the percentage decrease in sulphorodamine B binding compared with control cultures, the latter involving the use of (2E)-3-[3′-(1-adamantyl)-4′-hydroxy[1,1′-biphenyl]-4-yl]-2-propenoic acid (ST1926).
The IC50 values were calculated with the “ALLFIT” program.

[2] = system: human ovarian cancer cell line A2780; test: Cytotoxicity on A2780 tumor cell line; assay type: cell-based; details: 5 Mm as printed in head (text: 5 μM), preliminary results; for inhibition at 5 µM: Homo sapiens, A2780
Procedure: The antiproliferative effect of the compounds is reported as percentages of inhibition of cellular proliferation measured at 5 μM as reported in table 3.

A431 tumour cells = test: In vivo study on A431 epidermoid carcinoma; details: iv 10 mg/10 ml/kg, qdx3/wx2w, after two weeks of treatment, sc A431 in CD1 nude mice; p=0.036 versus vehicle
Procedure: The tumour was generated by subcutaneous injection of A431 tumour cells (5×10^6/100 μl/mouse), in 0.1 ml medium Tc199 in the right flank of CD1 nude mice. 3 days after tumour injection, ST5589 was delivered iv at a dose of 10 mg/10 ml/kg according to the schedule qdx3/wx2w in a group of 9 mice.
To evaluate the antitumour activity of ST5589, tumour diameters were measured biweekly with a Vernier caliper and tumour volume was calculated according to the formula TV=d^2×D/2
where d and D are the shortest and longest diameters, respectively.
The efficacy of the drug was assessed as the tumour volume inhibition according to the formula reported underneath: […]

[3] = Chemical stability in solution at various pH; assay type: physicochemical; details: after 24 h at pH 7.4
Procedure: The compounds were screened at various pH in order to test their relative chemical stability in solution. All of them resulted stable after incubation for 3 h at pH=1.2. Chemical stability was also investigated at pH=7.4 after 24 h incubation.

[4] = Homo sapiens, NCI-H460, 24 h treatment

Row | Structure (SMILES) | IC50 [1, 4] [µM] | inhibition at 5 µM [2] [%] | also measured
1 | O=C(O)/C=C/c1ccc(-c2ccc(O)c(C34CC5CC(CC(C5)C3)C4)c2)cc1 [Control, (2E)-3-[3′-(1-adamantyl)-4′-hydroxy[1,1′-biphenyl]-4-yl]-2-propenoic acid, reference compound] | 0.13 |  | 
2 | CCCCCCCCCCC(=O)Oc1ccc(-c2ccc(/C=C/C(=O)O)cc2)cc1C12CC3CC(CC(C3)C1)C2 [Example 3, undecanoic acid 3-adamantan-1-yl-4′-((E)-2-carboxy-vinyl)-biphenyl-4-yl ester] | 1.54 ± 0.08 | 94 | 
3 | CCCCCCCCCCCNC(=O)Oc1ccc(-c2ccc(/C=C/C(=O)O)cc2)cc1C12CC3CC(CC(C3)C1)C2 [Example 10, (E)-3-(3′-adamantan-1-yl-4′-undecyl-carbamoyloxy-biphenyl-4-yl)-acrylic acid] |  |  | IC50 ([1]; 24 h treatment): 1.39 ± 0.04 µM; % Inhibition at 5 Mm on A2780 cell line [2]: 90%
4 | CC(C)NC(=O)Oc1ccc(-c2ccc(/C=C/C(=O)O)cc2)cc1C12CC3CC(CC(C3)C1)C2 [Example 12] |  |  | IC50 ([1]; 24 h treatment): 5 µM
5 | O=C(O)/C=C/c1ccc(-c2ccc(OC(=O)NCC(=O)O)c(C34CC5CC(CC(C5)C3)C4)c2)cc1 [Example 7, (E)-3-(3′-adamantan-1-yl-4′-carboxymethylcarbamoyloxy-biphenyl-4-yl)-acrylic acid] | 3 ± 0.1 | 26 | 
6 | CNCCNC(=O)Oc1ccc(-c2ccc(/C=C/C(=O)O)cc2)cc1C12CC3CC(CC(C3)C1)C2 [Example 6, (E)-3-[3′-adamantan-1-yl-4′-(2-methylamino-ethylcarbamoyloxy)-biphenyl-4-yl]-acrylic acid] | 0.24 ± 0.008 | 93 | 
7 | CN1CCN(CCCC(=O)Oc2ccc(-c3ccc(/C=C/C(=O)O)cc3)cc2C23CC4CC(CC(C4)C2)C3)CC1 [Example 5, 4-(4-methyl-piperazin-1-yl)-butyric acid 3-adamantan-1-yl-4′-((E)-2-carboxy-vinyl)-biphenyl-4-yl ester dihydrochloride] | 0.24 ± 0.01 | 92 | 
8 | O=C(O)/C=C/c1ccc(-c2ccc(OC(=O)NCCN3CCOCC3)c(C34CC5CC(CC(C5)C3)C4)c2)cc1 [Example 9, (E)-3-[3′-adamantan-1-yl-4′-(2-morpholin-4-yl-ethyl-carbamoyloxy)-biphenyl-4-yl]-acrylic acid hydrochloride] | 0.92 ± 0.05 | 90 | 
9 | O=C(O)/C=C/c1ccc(-c2ccc(OC(=O)N3CCC(N4CCCCC4)CC3)c(C34CC5CC(CC(C5)C3)C4)c2)cc1 [Example 11, [1,4′]bipiperidinyl-1′-carboxylic acid 3-adamantan-1-yl-4′-((E)-2-carboxy-vinyl)-biphenyl-4-yl ester hydrochloride] | > 20 |  | 
10 | Cl.O=C(O)/C=C/c1ccc(-c2ccc(OC(=O)CCCN3CCOCC3)c(C34CC5CC(CC(C5)C3)C4)c2)cc1 [Example 4, 4-morpholin-4-yl-butyric acid 3-adamantan-1-yl-4′-((E)-2-carboxy-vinyl)-biphenyl-4-yl ester hydrochloride] | 0.22 ± 0.009 | 94 | reduction in tumour volume (tumour volume inhibition) (A431 tumour cells): 34%
11 | CCCCCC=CC/C=C/CCCCCCCC(=O)Oc1ccc(-c2ccc(C=CC(=O)O)cc2)cc1C12CC3CC(CC(C3)C1)C2 [Example 18, (E)-Octadeca-9,12-dienoic acid 3-adamantan-1-yl-4′-(2-carboxyvinyl)-biphenyl-4-yl ester] | 7.8 ± 0.7 | 55 | 
12 | O=C(O)/C=C/c1ccc(-c2ccc(OC(=O)NC3CCN(C(=O)OCc4ccccc4)CC3)c(C34CC5CC(CC(C5)C3)C4)c2)cc1 [Example 13, 4-[3-adamantan-1-yl-4′-((E)-2-carboxy-vinyl)-biphenyl-4-yloxycarbonylamino]-piperidine-1-carboxylic acid benzyl ester] | 5 | 71 | 
13 | N#CCOc1ccc(-c2ccc(/C=C/C(=O)O)cc2)cc1C12CC3CC(CC(C3)C1)C2 [Example 21, (E)-3-(3′-Adamantan-1-yl-4′-cyanomethoxybiphenyl-4-yl)-acrylic acid] | 0.85 ± 0.06 |  | 
14 | O=C(O)/C=C/c1ccc(-c2ccc(OC(=O)C3CC3)c(C34CC5CC(CC(C5)C3)C4)c2)cc1 [Example 16, (E)-cyclopropanecarboxylic acid 3-adamantan-1-yl-4′-(2-carboxyvinyl)-biphenyl-4-yl ester] |  |  | IC50 ([1]; 24 h treatment): 0.85 ± 0.03 µM; % Inhibition at 5 Mm on A2780 cell line [2]: 93%
15 | NC1(C(=O)Oc2ccc(-c3ccc(/C=C/C(=O)O)cc3)cc2C23CC4CC(CC(C4)C2)C3)CC1.O=C(O)C(F)(F)F [Example 20, (E)-1-[3-Adamantan-1-yl-4′-(2-carboxyvinyl)-biphenyl-4-yloxycarbonyl]-cyclopropyl-ammonium trifluoroacetate] | 0.1 ± 0.003 | 94 | amount of E-4-(3-(1-adamantyl)-4-hydroxyphenyl)cinnamic acid (hydrolysed parent compound) [3]: 8%
16 | CC(C)[C@H](N)C(=O)Oc1ccc(-c2ccc(/C=C/C(=O)O)cc2)cc1C12CC3CC(CC(C3)C1)C2 [Example 1, (S)-2-amino-3-methyl-butyric acid 3-adamantan-1-yl-4′-((E)-2-carboxy-vinyl)-biphenyl-4-yl ester hydrochloride] | 0.51 ± 0.003 | 93 | 
17 | CC(C)C[C@H](NC(=O)Oc1ccc(-c2ccc(/C=C/C(=O)O)cc2)cc1C12CC3CC(CC(C3)C1)C2)C(=O)NCC(=O)O [Example 14, (E)-3-{3′-Adamantan-1-yl-4′-[(S)-1-(carboxymethyl-carbamoyl)-3-methyl-butylcarbamoyloxy]-biphenyl-4-yl}-acrylic acid] | 3.5 ± 0.2 |  | 
18 | O=C(O)/C=C/c1ccc(-c2ccc(OCCN3CCOCC3)c(C34CC5CC(CC(C5)C3)C4)c2)cc1 [Example 23, (E)-3-[3′-Adamantan-1-yl-4′-(2-morpholin-4-yl-ethoxy)biphenyl-4-yl]-acrylic acid] | > 5 |  | 
19 | O=C(O)/C=C/c1ccc(-c2ccc(OC(=O)COCCOCCOCC(=O)O)c(C34CC5CC(CC(C5)C3)C4)c2)cc1 [Example 2, (E)-3-(3′-adamantan-1-yl-4′-{2-[2-(2-carboxymethoxy-ethoxy)-ethoxy]-acetoxy}-biphenyl-4-yl)-acrylic acid] | 0.17 ± 0.007 | 93 | 
20 | COCCOCOc1ccc(-c2ccc(/C=C/C(=O)O)cc2)cc1C12CC3CC(CC(C3)C1)C2 [Example 15, (E)-3-[3′-Adamantan-1-yl-4′-(2-methoxyethoxymethoxy)-biphenyl-4-yl]acrylic acid] | 4.2 ± 0.04 | 78 | 
21 | O=C(O)/C=C/c1ccc(-c2ccc(OCN3C(=O)c4ccccc4C3=O)c(C34CC5CC(CC(C5)C3)C4)c2)cc1 [Example 17, (E)-3-[3′-Adamantan-1-yl-4′-(1,3-dioxo-1,3-dihydroisoindol-2-ylmethoxy)-biphenyl-4yl]-acrylic acid] | 8.4 ± 1.6 |  | 
22 | CCCOC(=O)OCOc1ccc(-c2ccc(/C=C/C(=O)O)cc2)cc1C12CC3CC(CC(C3)C1)C2 [Example 19] |  |  | IC50 ([1]; 24 h treatment): 0.32 ± 0.01 µM
23 | NCCCCNC(=O)Oc1ccc(-c2ccc(/C=C/C(=O)O)cc2)cc1C12CC3CC(CC(C3)C1)C2 [Example 8, (E)-3-[3′-adamantan-1-yl-4′-(4-amino-butylcarbamoyloxy)-biphenyl-4-yl]-acrylic acid hydrochloride] | 2.6 ± 0.08 | 70 | 
